Values of other authors, collected in patent US20230349886A1, “SYSTEMS AND METHODS FOR PREDICTING CARDIOTOXICITY OF MOLECULAR PARAMETERS OF A COMPOUND BASED ON MACHINE LEARNING ALGORITHMS” (UTI Limited Partnership, priority 2015, published 2023).
Like-named read-outs stand apart in the source and are kept apart here. Peptide text beside a SMILES is read from it.

How the values were obtained:
Nav1.5 [1] = molecular target: T1, Nav1.5 (Homo sapiens, UniProt Q14524); conditions: Nav1.5 training/test/validation set; 92 actives and 860 inactive compounds; 1 = active
hERG = hERG (Homo sapiens, UniProt Q12809); conditions: for HERG-maxinhib: maximal inhibition
Cav1.2 = Cav1.2 (Homo sapiens, UniProt Q13936); conditions: for CAV1p2-maxinhib: maximal inhibition
Nav1.5 [2] = molecular target: T1, Nav1.5
Nav1.5 [3] = molecular target: Nav1.5 (Homo sapiens, UniProt Q14524, S234P/V215L)
[4] = Brown dataset; flag given as 1 or 0
[5] = for Free drug: experimental data file, Kramer et al. 2013
[6] = Brown dataset, negative log of free drug concentration
[7] = Table 11, calculated from HERG-IC50 of the Kramer et al. 2013 data
[8] = experimental data, Kramer et al. 2013
[9] = read-out: HERG-IC50, experimental data, Kramer et al. 2013
[10] = read-out: CAV1p2-IC50, experimental data, Kramer et al. 2013
[11] = maximal inhibition, Kramer et al. 2013
[12] = read-out: NAV1p5-IC50, experimental data, Kramer et al. 2013
[13] = read-out: HERG IC50, Brown dataset
[14] = read-out: CAV1.2 IC50, Brown dataset
[15] = read-out: NAV1.5 IC50, Brown dataset

Chain of Cav1.2 (Q13936 1-2138 isoform Q13936-12): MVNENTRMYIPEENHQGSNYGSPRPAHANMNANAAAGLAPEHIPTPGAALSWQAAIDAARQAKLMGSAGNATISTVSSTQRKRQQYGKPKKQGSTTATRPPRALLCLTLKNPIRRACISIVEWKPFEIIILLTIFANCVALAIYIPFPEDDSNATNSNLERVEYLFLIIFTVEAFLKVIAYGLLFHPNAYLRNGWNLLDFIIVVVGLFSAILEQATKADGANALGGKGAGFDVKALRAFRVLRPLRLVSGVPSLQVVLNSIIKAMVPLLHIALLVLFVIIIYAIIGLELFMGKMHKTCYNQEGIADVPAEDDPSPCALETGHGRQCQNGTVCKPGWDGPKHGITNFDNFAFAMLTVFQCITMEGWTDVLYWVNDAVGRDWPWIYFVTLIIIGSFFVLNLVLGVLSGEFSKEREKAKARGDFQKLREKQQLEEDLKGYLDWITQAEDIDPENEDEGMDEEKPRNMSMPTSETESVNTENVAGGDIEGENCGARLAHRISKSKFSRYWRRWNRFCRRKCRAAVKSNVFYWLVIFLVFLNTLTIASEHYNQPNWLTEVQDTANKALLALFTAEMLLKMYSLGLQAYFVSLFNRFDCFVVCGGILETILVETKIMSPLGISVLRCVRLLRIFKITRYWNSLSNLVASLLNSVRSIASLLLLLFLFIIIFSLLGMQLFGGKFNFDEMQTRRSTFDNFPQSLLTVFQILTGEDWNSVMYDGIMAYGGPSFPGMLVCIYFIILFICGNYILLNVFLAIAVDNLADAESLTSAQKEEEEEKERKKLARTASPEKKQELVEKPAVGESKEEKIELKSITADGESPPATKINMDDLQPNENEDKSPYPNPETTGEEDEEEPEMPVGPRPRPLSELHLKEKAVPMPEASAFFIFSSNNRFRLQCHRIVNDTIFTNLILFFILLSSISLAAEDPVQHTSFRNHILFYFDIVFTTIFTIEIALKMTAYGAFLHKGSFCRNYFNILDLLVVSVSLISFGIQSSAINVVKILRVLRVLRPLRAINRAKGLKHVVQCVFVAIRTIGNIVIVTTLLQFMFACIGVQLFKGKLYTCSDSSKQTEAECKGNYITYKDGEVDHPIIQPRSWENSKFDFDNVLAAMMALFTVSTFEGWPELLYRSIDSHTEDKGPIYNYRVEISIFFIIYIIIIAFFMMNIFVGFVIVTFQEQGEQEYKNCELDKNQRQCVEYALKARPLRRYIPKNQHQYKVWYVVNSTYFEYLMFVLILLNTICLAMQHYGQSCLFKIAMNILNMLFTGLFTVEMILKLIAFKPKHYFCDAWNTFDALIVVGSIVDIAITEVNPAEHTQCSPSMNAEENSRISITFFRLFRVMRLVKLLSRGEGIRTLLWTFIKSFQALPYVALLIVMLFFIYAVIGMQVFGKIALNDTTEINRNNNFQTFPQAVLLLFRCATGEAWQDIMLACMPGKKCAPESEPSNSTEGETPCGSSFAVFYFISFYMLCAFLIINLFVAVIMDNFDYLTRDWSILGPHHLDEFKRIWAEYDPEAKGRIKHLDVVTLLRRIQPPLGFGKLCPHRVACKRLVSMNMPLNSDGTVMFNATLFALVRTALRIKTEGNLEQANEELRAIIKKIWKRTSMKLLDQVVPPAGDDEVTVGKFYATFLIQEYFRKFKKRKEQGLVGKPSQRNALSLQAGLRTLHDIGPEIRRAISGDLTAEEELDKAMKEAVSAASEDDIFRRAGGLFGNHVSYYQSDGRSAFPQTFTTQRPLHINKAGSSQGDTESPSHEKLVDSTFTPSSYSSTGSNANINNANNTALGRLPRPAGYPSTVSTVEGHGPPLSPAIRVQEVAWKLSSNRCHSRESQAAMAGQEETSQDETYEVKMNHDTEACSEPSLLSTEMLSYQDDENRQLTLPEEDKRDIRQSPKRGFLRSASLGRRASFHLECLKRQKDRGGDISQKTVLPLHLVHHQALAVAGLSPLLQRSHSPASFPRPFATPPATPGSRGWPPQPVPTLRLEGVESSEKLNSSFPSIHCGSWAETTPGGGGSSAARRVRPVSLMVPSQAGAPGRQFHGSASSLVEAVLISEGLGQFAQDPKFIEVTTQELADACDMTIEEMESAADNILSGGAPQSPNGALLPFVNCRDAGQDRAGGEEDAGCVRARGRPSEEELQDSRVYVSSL
Chain of Cav1.2 (Q08289 whole entry partner): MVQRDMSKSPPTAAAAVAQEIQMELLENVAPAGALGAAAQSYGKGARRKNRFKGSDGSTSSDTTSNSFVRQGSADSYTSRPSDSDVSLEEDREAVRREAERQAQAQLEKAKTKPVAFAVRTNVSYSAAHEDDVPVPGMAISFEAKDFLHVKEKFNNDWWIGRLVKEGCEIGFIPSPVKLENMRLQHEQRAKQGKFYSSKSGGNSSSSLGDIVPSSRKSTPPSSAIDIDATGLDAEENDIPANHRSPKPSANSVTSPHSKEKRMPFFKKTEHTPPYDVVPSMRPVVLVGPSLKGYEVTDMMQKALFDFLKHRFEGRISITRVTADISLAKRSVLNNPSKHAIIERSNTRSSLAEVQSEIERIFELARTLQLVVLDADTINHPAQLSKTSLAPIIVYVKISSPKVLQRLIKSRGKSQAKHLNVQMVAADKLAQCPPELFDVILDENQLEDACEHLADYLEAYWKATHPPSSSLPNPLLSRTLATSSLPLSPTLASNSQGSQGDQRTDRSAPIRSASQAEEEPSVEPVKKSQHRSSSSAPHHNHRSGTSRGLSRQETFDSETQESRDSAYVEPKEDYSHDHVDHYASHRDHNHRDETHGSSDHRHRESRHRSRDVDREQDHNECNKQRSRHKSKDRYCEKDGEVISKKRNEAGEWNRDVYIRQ
Chain of Cav1.2 (P54289 25-946 partner limits assumed): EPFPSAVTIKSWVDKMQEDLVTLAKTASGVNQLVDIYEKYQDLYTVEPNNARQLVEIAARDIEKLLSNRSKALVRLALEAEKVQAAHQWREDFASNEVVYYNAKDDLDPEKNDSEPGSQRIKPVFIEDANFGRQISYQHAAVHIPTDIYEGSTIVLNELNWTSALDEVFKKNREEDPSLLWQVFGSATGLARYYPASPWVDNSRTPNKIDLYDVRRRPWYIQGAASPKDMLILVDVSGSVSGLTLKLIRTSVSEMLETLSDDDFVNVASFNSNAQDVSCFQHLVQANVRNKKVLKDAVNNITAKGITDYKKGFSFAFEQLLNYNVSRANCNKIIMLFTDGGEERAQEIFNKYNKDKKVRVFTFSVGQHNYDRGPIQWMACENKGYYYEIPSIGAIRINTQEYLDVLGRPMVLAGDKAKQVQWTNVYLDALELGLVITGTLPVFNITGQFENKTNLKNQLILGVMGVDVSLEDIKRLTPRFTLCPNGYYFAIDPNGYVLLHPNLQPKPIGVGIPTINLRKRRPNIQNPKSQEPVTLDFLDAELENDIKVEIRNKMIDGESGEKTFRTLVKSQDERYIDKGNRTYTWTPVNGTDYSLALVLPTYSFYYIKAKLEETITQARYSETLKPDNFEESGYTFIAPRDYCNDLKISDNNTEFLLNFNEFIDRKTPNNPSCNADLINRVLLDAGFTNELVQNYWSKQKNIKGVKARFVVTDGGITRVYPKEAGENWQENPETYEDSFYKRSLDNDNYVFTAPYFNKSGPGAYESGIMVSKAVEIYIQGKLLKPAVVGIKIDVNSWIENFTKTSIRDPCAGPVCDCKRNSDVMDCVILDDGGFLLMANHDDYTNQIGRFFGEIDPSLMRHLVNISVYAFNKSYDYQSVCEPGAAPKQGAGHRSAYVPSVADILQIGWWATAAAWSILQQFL
Chain of Cav1.2 (P54289 947-1103 partner limits assumed): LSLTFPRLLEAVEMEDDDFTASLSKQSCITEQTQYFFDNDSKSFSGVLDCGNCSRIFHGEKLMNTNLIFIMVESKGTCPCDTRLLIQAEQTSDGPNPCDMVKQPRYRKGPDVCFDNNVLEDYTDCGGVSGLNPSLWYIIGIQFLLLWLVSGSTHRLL
Chain of hERG (Q12809 whole entry): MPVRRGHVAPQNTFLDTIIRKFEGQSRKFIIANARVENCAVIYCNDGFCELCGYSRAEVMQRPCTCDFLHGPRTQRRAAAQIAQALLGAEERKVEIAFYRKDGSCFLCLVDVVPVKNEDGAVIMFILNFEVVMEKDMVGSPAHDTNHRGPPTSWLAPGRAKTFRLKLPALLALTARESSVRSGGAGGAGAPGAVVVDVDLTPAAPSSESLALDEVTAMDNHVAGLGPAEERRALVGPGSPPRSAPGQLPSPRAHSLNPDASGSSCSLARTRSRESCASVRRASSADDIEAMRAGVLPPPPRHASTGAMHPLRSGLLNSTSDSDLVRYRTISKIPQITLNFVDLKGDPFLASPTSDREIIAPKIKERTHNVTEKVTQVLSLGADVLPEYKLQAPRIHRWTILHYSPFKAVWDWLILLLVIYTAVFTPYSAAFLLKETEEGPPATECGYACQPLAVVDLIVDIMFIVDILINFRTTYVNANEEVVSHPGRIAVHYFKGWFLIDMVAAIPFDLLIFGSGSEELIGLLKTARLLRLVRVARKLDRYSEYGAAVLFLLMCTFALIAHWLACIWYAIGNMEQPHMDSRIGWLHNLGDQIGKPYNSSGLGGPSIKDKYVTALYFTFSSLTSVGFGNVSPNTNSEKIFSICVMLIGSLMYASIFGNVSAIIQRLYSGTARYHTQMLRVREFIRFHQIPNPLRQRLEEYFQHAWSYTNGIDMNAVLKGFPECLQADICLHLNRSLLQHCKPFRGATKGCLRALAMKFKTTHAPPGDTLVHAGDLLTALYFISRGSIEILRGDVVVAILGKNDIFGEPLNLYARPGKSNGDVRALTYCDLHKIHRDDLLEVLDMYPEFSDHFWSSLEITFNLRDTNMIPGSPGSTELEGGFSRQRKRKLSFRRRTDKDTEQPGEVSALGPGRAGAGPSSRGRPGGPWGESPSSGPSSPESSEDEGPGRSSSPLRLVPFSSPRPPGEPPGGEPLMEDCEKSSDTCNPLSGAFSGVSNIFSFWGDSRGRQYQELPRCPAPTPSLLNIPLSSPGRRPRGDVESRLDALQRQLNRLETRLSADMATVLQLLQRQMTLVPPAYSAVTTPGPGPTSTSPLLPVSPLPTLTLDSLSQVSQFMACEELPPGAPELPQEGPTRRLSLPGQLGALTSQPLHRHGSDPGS

Molecule: NC(=S)Nc1cccc(OCCCCCN2CCN(c3ccccc3-c3ccccc3)C2=S)c1 [CHEMBL569085]
- activity (Nav1.5 [1]): Found 92 actives and 860 inactive compounds. 952 CHEMBL569085 1

Molecule: Fc1ccc([C@@H]2CCNC[C@H]2COc2ccc3c(c2)OCO3)cc1 [paroxetine]
- HERG maxInhib (hERG; Brown dataset): 99.5
- CAV1.2 max inhib (Cav1.2): 98.5
- CAV1.2 pIC50 (Cav1.2): 5.409 393
- IC50 (Cav1.2): 3.9 µM
- IC50 (Nav1.5 [2]): 9.8 µM
- NAV1.5 max inhib (Nav1.5 [2]): 93.7
- NAV1.5 pIC50 (Nav1.5 [3]): 5.009 924
- Ris (TdP risk flag) [4]: 1

Molecule: Cc1nc(Nc2ncc(C(=O)Nc3c(C)cccc3Cl)s2)cc(N2CCN(CCO)CC2)n1 [dasatinib]
- HERG maxInhib (hERG; Brown dataset): 86.6
- CAV1.2 max inhib (Cav1.2; Brown dataset): 52.2
- NAV1.5 max inhib (Nav1.5 [2]; Brown dataset): 58.9
- Ris (TdP risk flag) [4]: 0
- pFD [5, 6]: 1.387 ^-1614

Molecule: chlorpromazine
- pIC50 (hERG; [7]): 5.824
- HERG-pIC50 (hERG; [8]): 5.824
- HERG-maxinhib (hERG; Kramer et al. 2013): 96.7
- IC50 (hERG; [9]): 1.5 µM
- CAV1p2-pIC50 (Cav1.2; [8]): 5.469
- CAV1p2-maxinhib (Cav1.2; Kramer et al. 2013): 99.2
- IC50 (Cav1.2; [10]): 3.4 µM
- NAV1p5-pIC50 (Nav1.5 [2]; [8]): 5.523
- NAV1p5-maxinhib (Nav1.5 [2]; [11]): 97.1
- IC50 (Nav1.5 [2]; [12]): 3 µM
- Free drug [5]: 0.038 µM
- pFD ([5]; negative log of free drug): 7.42

Molecule: COc1ccc(CCN2CCC(Nc3nc4ccccc4n3Cc3ccc(F)cc3)CC2)cc1 [astemizole]
- Ris (TdP risk flag) [4]: 1
- Free drug [5]: 0.0003 µM
- pFD ([5]; negative log of free drug): 9.523

Molecule: CO/N=C(\C(=O)N[C@@H]1C(=O)N2C(C(=O)O)=C(CSc3nc(=O)c(=O)[nH]n3C)CS[C@H]12)c1csc(N)n1 [ceftriaxone]
- HERG maxInhib (hERG; Brown dataset): 7.5
- pIC50 (hERG; [7]): 3.351
- HERG-pIC50 (hERG; [8]): 3.351
- HERG-maxinhib (hERG; Kramer et al. 2013): 7.5
- IC50 (hERG; [13]): 445 µM
- IC50 (hERG; [9]): 446 µM
- CAV1.2 max inhib (Cav1.2; Brown dataset): 38.8
- CAV1p2-pIC50 (Cav1.2; [8]): 3.813
- CAV1p2-maxinhib (Cav1.2; Kramer et al. 2013): 38.8
- IC50 (Cav1.2; [10]): 154 µM
- IC50 (Cav1.2; [14]): 154 µM
- NAV1.5 max inhib (Nav1.5 [2]; Brown dataset): 14.3
- NAV1p5-pIC50 (Nav1.5 [2]; [8]): 3.255
- NAV1p5-maxinhib (Nav1.5 [2]; [11]): 14.3
- IC50 (Nav1.5 [2]; [12]): 556 µM
- IC50 (Nav1.5 [2]; [15]): 555 µM
- Ris (TdP risk flag) [4]: 0
- Free drug [5]: 23.17 µM
- pFD ([5]; negative log of free drug): 4.635

Molecule: CCCCCC=C(c1cc(C)c(OC)c(C(=O)OC)c1)c1cc(C)c(OC)c(C(=O)OC)c1 [CHEMBL335768]
- activity (Nav1.5 [1]): 1

Molecule: Cc1nc2n(c(=O)c1CCN1CCC(c3noc4cc(F)ccc34)CC1)CCCC2 [risperidone]
- HERG maxInhib (hERG; Brown dataset): 79.7
- Ris (TdP risk flag) [4]: 1
- Free drug concentration ([5]; Brown dataset): 0 nM

Molecule: CC(C)COCC(CN(Cc1ccccc1)c1ccccc1)N1CCCC1 (centres unmarked) [bepridil]
- CAV1.2 max inhib (Cav1.2; Brown dataset): 95.7
- CAV1p2-maxinhib (Cav1.2; Kramer et al. 2013): 95.7
- IC50 (Nav1.5 [2]): 2.3 µM
- NAV1p5-maxinhib (Nav1.5 [2]): 100
- NAV1p5-pIC50 (Nav1.5 [2]): 5.638
- NAV1.5 max inhib (Nav1.5 [2]): 100
- NAV1.5 pIC50 (Nav1.5 [3]): 5.6382 164
- Ris (TdP risk flag) [4]: 1
- Free drug [5]: 0.035 µM
- pFD ([5]; negative log of free drug): 7.456

Molecule: O=C1NC(=O)C(c2ccccc2)(c2ccccc2)N1 [phenytoin]
- HERG maxInhib (hERG): 16.4
- CAV1.2 max inhib (Cav1.2; Brown dataset): 91.7
- IC50 (Cav1.2; [14]): 21.9 µM
- NAV1.5 max inhib (Nav1.5 [2]; Brown dataset): 59.3
- IC50 (Nav1.5 [2]; [15]): 72.4 µM
- Ris (TdP risk flag) [4]: 0
- Free drug concentration ([5]; Brown dataset): 4360 nM

Molecule: CCOC(=O)C1=C(C)NC(C)=C(C(=O)OC)C1c1cccc([N+](=O)[O-])c1 (centres unmarked) [nitrendipine]
- HERG maxInhib (hERG; Brown dataset): 68.3
- pIC50 (hERG; [7]): 4.609
- IC50 (hERG; [13]): 24.6 µM
- CAV1.2 max inhib (Cav1.2; Brown dataset): 74.6
- NAV1.5 max inhib (Nav1.5 [2]; Brown dataset): 86.3
- IC50 (Nav1.5 [2]; [15]): 21.6 µM
- Ris (TdP risk flag) [4]: 0

Molecule: C[C@@H]1CN(c2c(F)c(N)c3c(=O)c(C(=O)O)cn(C4CC4)c3c2F)C[C@H](C)N1 [sparfloxacin]
- HERG maxInhib (hERG): 81.5
- HERG pIC50 (hERG): 4.656 726
- IC50 (hERG): 22.1 µM
- pIC50 (hERG): 4.656
- CAV1.2 max inhib (Cav1.2; Brown dataset): 50.3
- IC50 (Cav1.2; [14]): 88.8 µM
- NAV1.5 max inhib (Nav1.5 [2]; Brown dataset): 0.8
- IC50 (Nav1.5 [2]; [15]): 2560 µM
- Ris (TdP risk flag) [4]: 1

Molecule: NC(=O)c1ncn([C@@H]2O[C@H](CO)[C@@H](O)[C@H]2O)n1 [ribavirin]
- HERG maxInhib (hERG; Brown dataset): 21.4
- pIC50 (hERG; [7]): 3.015
- IC50 (hERG; [13]): 967 µM
- CAV1.2 max inhib (Cav1.2; Brown dataset): 31.9
- IC50 (Cav1.2; [14]): 622 µM
- NAV1.5 max inhib (Nav1.5 [2]; Brown dataset): 6.9
- IC50 (Nav1.5 [2]; [15]): 3000 µM
- Ris (TdP risk flag) [4]: 0

Molecule: CNCC[C@H](Oc1cccc2ccccc12)c1cccs1 [duloxetine]
- HERG maxInhib (hERG): 96.3
- CAV1.2 max inhib (Cav1.2; Brown dataset): 99.8
- IC50 (Cav1.2; [14]): 2.8 µM
- NAV1.5 max inhib (Nav1.5 [2]): 100
- IC50 (Nav1.5 [2]; read-out: NAV1.5 IC50): 5.1 µM
- Ris (TdP risk flag) [4]: 0

Molecule: CCCCCC=C(c1cc(Cl)c(OC)c(C(=O)O)c1)c1cc(Cl)c(OC)c(C(=O)O)c1 [CHEMBL111622]
- activity (Nav1.5 [1]): 1

Molecule: CCCCCCCN(CC)CCCC(O)c1ccc(NS(C)(=O)=O)cc1 (centres unmarked) [ibutilide]
- CAV1.2 max inhib (Cav1.2; Brown dataset): 85.2
- CAV1.2 pIC50 (Cav1.2; Brown dataset): 4.2041
- IC50 (Cav1.2; [14]): 62.5 µM
- NAV1.5 max inhib (Nav1.5 [2]; Brown dataset): 87.9
- IC50 (Nav1.5 [2]; [15]): 42.5 µM
- NAV1.5 pIC50 (Nav1.5 [3]; Brown dataset): 4.3716
- Ris (TdP risk flag) [4]: 1
- Free drug concentration ([5]; Brown dataset): 140 nM
- pFD [5, 6]: 6.853

Molecule: CCCCc1oc2ccccc2c1C(=O)c1cc(I)c(OCCN(CC)CC)c(I)c1 [amiodarone]
- Free drug [5]: 0.0008 µM
- pFD ([5]; negative log of free drug): 9.097

Molecule: CC(C)[C@H](NC(=O)CN)C(=O)N[C@@H](CCC(N)=O)C(=O)O [CHEMBL123454] (H-Gly-Val-Gln-OH)
- activity (Nav1.5 [1]): 1

Molecule: O=C(O)CCCCCC/C=C/CO [CHEMBL458520]
- activity (Nav1.5 [1]): 1
